Laboratory results as given in patent EP1655289A1, “Quinazoline derivatives, process for their preparation, their use as antimitotics and pharmaceutical compositions comprising said derivatives” (EMBL, priority 2004, dated 2006).
Like-named read-outs stand apart in the source and are kept apart here.

Columns and labels:
[1] = test system: Xenopus egg extract; assay: Spindle assembly in Xenopus egg extracts; design: species or system Xenopus laevis
Description: Cytostatic factor (CSF)-arrested Xenopus laevis egg extracts were prepared as described previously. Spindle assembly experiments were performed in cycled extracts with sperm nuclei and tetramethylrhodamine labelled tubulin as described. 1 % (v/v) (or less) inhibitor dissolved in DMSO was added to the extract prior to spindle assembly. As control 1% DMSO was added to the extract. Spindles were fixed and centrifuged onto coverslips. The DNA was stained with DAPI. Structures were then visualized by epi-fluorescence microscopy (Zeiss Axiovert 135 equipped with a Roper CoolSnap HQ camera). Spindles and aberrant microtubule structures were then counted.

[2] = molecular target: T1, Eg5 (Xenopus laevis, UniProt P28025); assay: Microtubule-stimulated ATPase activity of Eg5 (EnzChek Phosphate Assay), IC50 determination; format: biochemical; conditions: for potency as inhibitor of Eg5 compared to monastrol: ratio of IC50 values versus monastrol
T1 construct: Xenopus laevis Eg5 corresponding to amino acids 1 to 487; made in house; host or cells: E. coli M15(pREP4)
T1 sequence (P28025 1-487): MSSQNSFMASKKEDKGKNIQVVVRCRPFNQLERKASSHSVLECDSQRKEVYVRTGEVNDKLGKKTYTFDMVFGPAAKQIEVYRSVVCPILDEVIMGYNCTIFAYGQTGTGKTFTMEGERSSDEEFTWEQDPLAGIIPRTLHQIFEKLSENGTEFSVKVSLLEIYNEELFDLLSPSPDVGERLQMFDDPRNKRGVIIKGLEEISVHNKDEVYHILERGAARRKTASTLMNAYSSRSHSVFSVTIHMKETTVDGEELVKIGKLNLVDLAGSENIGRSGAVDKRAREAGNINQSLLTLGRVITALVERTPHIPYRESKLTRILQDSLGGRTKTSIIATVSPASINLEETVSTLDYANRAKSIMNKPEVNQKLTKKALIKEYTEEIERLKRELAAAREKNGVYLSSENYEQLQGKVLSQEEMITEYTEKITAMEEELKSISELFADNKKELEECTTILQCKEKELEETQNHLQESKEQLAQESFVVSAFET
Description: The protein was expressed in E. coli M15(pREP4) for 5 h at 18 °C in LB containing 1 mM isopropylthio-β-D-galactopyranoside (IPTG), 100 µg/ml ampicillin, 25 µg/ml kanamycin, and 2% (v/v) ethanol. The harvested cells were lysed in buffer A (50 mM KPi, 100 mM NaCl, 0.1 mM MgATP protease inhibitors (Roche), pH 7.0) with 5 mM mercaptoethanol (ME). The clarified lysate was loaded onto a HIS-Select Cobalt Affi Gel column (Sigma), washed with buffer A supplemented with 10 mM imidazole, 2 mM ME, 10 % (w/v) glycerol, and eluted with 150 mM imidazole, 50 mM KCI, 10 % (w/v) glycerol, 10 mM ME, pH 7.3. The buffer was exchanged to 50 mM 3-(N-morpholino)propanesulfonic acid/KOH, 50 mM KCI, 1 mM MgCl2, 1 mM EGTA, 10 mM ME, 20 % (w/v) glycerol, pH 7.0 by dialysis. The protein concentration was adjusted to 2 mg/ml (measured by a Bradford assay using bovine serum albumin (BSA) as standard). Eg5487H was frozen in liquid ethane and stored in liquid nitrogen.
Polymerized microtubules were then stabilized by addition of 1 µl 10 mM paclitaxel (Sigma) in DMSO and incubated at 37 °C for another 20 minutes. The suspension was centrifuged at 70000 rpm at 30 °C for 30 minutes in a TLA100 rotor (Beckman). The resulting microtubule pellet was resuspended in 60 µl assay buffer (10 mM imidazole/acetate, 5 mM K-acetate, 2 mM EGTA and 4 mM Mg-acetate, pH 6.8.) supplemented with 20 µM paclitaxel at 37 °C. This microtubule suspension was stored at room temperature. The final concentration was 80 µM polymerized tubulin as determined by Bradford using BSA as a standard.
Final concentrations were 40 nM Eg5487H, 4 µM microtubules (tubulin dimer concentration as determined by Bradford using BSA as standard), and 1 mM MgATP. The ATPase activity was measured as an increase of absorbance at 365 nm within 2 h at room temperature. 1 % (v/v) inhibitor in DMSO at different concentrations (or 1 % (v/v) DMSO as a control) was added at the start of the experiment. At least 4 measurements were performed per condition and the results were then averaged. The microtubule-stimulated activity of Eg5487H was obtained by subtracting background activity (measured with microtubules only in the absence of Eg5487H) from measurements containing Eg5487H and microtubules. The IC50 was determined by assuming non-competitive enzyme inhibition and fitting the theoretically expected dependence of the enzym activity on the inhibitor concentration to the experimental microtubule-stimulated ATPase activities. The equation used for the fit was v = vmax * IC50 / ([inhibitor] + IC50) + vres with v being the measured relative ATPase rate, vmax being the maximum ATPase rate and vres being a residual activity at high inhibitor concentration.

[3] = test system: HeLa cells; assay: FACS cell cycle analysis of HeLa cells after 18 h inhibitor treatment; format: cell-based, human; conditions: for cells in G2/M: FACS (control 23%)
Description: (§1) Hela cells were cultured in DMEM medium supplemented with 10 % (v/v) FCS to 60 % confluency. The culture medium was then exchanged by fresh medium containing different inhibitor or DMSO and the cells placed at 37 °C in 5 % CO2 for 18 h. The final volume of inhibitor dissolved in DMSO in the medium was always equal to or less than 0.1 % (v/v)For wash out experiments, cells were treated as described above. After 18 h cells were washed with phosphate buffered saline (PBS), covered with fresh medium and cultured for another 24 h at 37 °C in 5 % CO2.
HeLa cells were incubated for 18 hours in medium supplemented with various concentrations of either of the three compounds, monastrol or DMSO. Cells were then fixed and analyzed by FACS and immunofluorescence.
(§2) For FACS analysis, cells were scraped off the culture plate after inhibitor treatment or after wash-out and collected by centrifugation in a Heraeus Megafuge 1.0R at 1200 rpm for 5 min. The cell pellet was washed once with 5 ml PBS and then resuspended in 0.5 ml PBS. The cells were fixed by addition of 4 ml 70 % (v/v) ethanol and incubation overnight at -20 °C. Fixed cells were centrifuges at 1200 rpm for 5 min, washed with 5 ml PBS, and resuspended in 1ml PI solution (10 µg/ml propidium iodide, 100 µg/ml RNAse A, 0.05 % Triton X100 in PBS). After 30 min at 37 °C in the dark, cells were analyzed by fluorescence-activated cell sorting (FACS).

[4] = test system: HeLa cells; assay: Wash-out experiment in HeLa cells (18 h treatment, 24 h fresh medium); format: cell-based, human; conditions: 24 h in fresh medium
Description: as §1, §2
One useful characteristic of monastrol is that is non-toxic for the cells when applied transiently; once washed out cells resume mitosis. […]

[5] = 10 µM added to Xenopus egg extract
[6] = microtubule-stimulated ATPase activity, 40 nM Eg5487H, 4 µM microtubules, 1 mM MgATP, read-out: IC50

Structure (SMILES) | bipolar spindle formation [1, 5] | IC50 [2, 6] [nM] | potency as inhibitor of Eg5 compared to monastrol [2] | cells in G2/M ([3]; 10 µM) [%] | bipolar spindle formation ([1]; 1 µM added to Xenopus egg extract) | IC50 [2] [nM] | cell cycle distribution ([3]; 0.1 µM, FACS) | cells in G2/M ([3]; 0.5 µM) [%] | cells in G2/M ([3]; 1 µM) [%] | cells in G2/M ([3]; 100 µM) [%] | toxicity for the cells when applied transiently [4]
Oc1cccc(C2NC(=S)NC3=C2C(O)CCC3)c1 (stereo not drawn) [Example 3, 4-(3-Hydroxyphenyl)-5-hydroxy-3,4,5,6,7,8-hexahydroquinazoline-2(1H)-thione] | inhibited bipolar spindle formation | 2000 | more than ten times more potent | 77 | – | – | – | – | – | – | –
CC1(C)CC(=O)C2=C(C1)NC(=S)NC2c1cccc(O)c1 (stereo not drawn) [Example 2, 7,7-Dimethyl-4-(3-hydroxyphenyl)-5-oxo-3,4,5,6,7,8-hexahydroquinazoline-2(1H)-thione] | – | – | more than 100 times | – | inhibited bipolar spindle formation | 200 | No cell cycle distribution abnormalities | 47 | 75 | – | –
O=C1CCCC2=C1C(c1cccc(O)c1)NC(=S)N2 (stereo not drawn) [Example 1, 4-(3-Hydroxyphenyl)-5-oxo-3,4,5,6,7,8-hexahydroquinazoline-2(1H)-thione] | inhibited bipolar spindle formation | 2000 | more than ten times more potent | 77 | – | – | – | – | – | – | –
CCOC(=O)C1=C(C)NC(=S)NC1c1cccc(O)c1 (stereo not drawn) [monastrol, 4-(3-hydroxyphenyl)-5-ethoxycarbonyl-6-methyl-3,4-dihydropyrimidin-2(1H), reference compound] | – | – | – | 31 | – | 30000 | – | – | – | 74 | non-toxic
